Data set [1] relates to perfused rat pancreas. As to the kind of experiment: Rat pancreas perfusion, glucagon output. Details: species or system rat (Wistar). The settings on record: bolus 10 mM L-arginine at end of experiment. The protocol: Non-fasted rats were anesthetized by a subcutaneous injection of a balanced mix of hypnorm and midazolam (0.3 mL/100 g body weight). Rats were placed on a heated operating table (37 °C) and the abdomen were opened. Blood vessels were tied off before removing the large and small intestines, the stomach, and the spleen. Then, the kidneys were ligated. […] The perfusion buffer was a modified Krebs-Ringer bicarbonate buffer with 5% (w/v) dextran T-70 (Pharmacosmos, Holbaek, Denmark), 0.1% (w/v) BSA (fraction V), 3.5 mM glucose and 3 mM vamin (Fresenius Kabi, Copenhagen, Denmark), pH adjusted to 7.4. […] Once perfusion of the pancreas was established, a catheter was inserted in the vena portae to collect the venous effluent and the rat was sacrificed by perforation of the diaphragm. After a 30-minute equilibration period, samples were collected every minute for the duration of the protocol. […] 10 mM L-Arginine was used as a positive control. Collected samples were immediately transferred on ice and stored at −20 °C until hormone analysis. Glucagon, insulin, and somatostatin concentrations in venous effluents were quantified by use of validated in-house radioimmunoassays (RIA) as previously described[36] (see below). Statistical analysis were performed where appropriate using one-way analysis of variance (ANOVA) with Dunnett’s post-test. Statistical significance was taken as p < 0.05.
Glucagon concentration in perfusion samples were measured by a validated in-house RIAs using the 4305 antibody, which reacts with the C-terminal epitope of glucagon[36] and no other cleavage products of pro-glucagon. Insulin concentrations were measured with the 2006 antibody, which measures all isoforms of rat insulin. […] Assay sensitivity was <1 pmol/L ( < 5 pmol/L for insulin detection), allowing reliable measurements of increments of at least 25 fmol/min.
Data analysis were performed in GraphPad Prism (v.9.4.1). Statistical analysis were performed using two-way repeated measure analysis of variance (ANOVA) with Šidák test for isolated islets glucagon secretion and one-way repeated measure ANOVA with Dunnett's test for rat pancreas perfusion experiments. Statistical significance was taken as p < 0.05.

In data set [2] the target is T1, human SSTR3 (Homo sapiens, UniProt P32745).
T1 construct: Tango cassette (PRESTO-Tango template of Kroeze et al. 2015); Bryan Roth (Addgene) Addgene kit # 1000000068; host or cells: HTLA cells
T1 sequence (P32745 whole entry): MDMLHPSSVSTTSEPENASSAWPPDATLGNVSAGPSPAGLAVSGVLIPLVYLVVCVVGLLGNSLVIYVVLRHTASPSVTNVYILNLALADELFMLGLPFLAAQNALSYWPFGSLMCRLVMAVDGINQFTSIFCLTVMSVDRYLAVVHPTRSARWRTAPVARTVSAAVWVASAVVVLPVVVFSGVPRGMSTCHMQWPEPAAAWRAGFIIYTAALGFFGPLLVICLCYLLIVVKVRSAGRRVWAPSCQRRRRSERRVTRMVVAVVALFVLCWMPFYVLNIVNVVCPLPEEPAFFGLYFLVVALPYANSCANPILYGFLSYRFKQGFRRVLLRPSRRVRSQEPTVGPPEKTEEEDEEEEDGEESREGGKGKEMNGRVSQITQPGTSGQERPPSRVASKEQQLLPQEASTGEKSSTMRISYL
As to the kind of experiment: PRESTO-Tango β-arrestin recruitment assay, hSSTR3. It is filed as cell-based. An excerpt:
HTLA cells were given by Prof.
The assay was done as described in ref. [12].
For orientation: Recruitment of arrestin is a read-out of receptor activation apart from second messengers.

The target of data set [3] is T2, human SSTR2 (Gi1) (Homo sapiens, UniProt P30874).
T2 construct: host or cells: HEK293T cells
T2 sequence (P30874 whole entry): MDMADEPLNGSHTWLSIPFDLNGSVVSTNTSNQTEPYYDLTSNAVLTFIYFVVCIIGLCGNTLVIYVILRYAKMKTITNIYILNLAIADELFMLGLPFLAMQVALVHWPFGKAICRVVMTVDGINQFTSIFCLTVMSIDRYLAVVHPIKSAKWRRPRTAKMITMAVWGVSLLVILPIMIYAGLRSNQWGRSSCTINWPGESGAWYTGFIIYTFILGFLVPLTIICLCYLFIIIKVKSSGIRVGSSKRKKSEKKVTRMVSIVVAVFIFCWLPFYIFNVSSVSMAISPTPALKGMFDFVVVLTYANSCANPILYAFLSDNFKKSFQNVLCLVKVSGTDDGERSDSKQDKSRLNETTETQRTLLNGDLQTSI
Briefly: G protein activation (BRET dissociation) assay, Gi1 at hSSTR2.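 Note: percent of the maximal response to the reference somatostatin agonist.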 It is filed as cell-based. A general note: BRET reads energy transfer from a luciferase to a nearby fluorophore.
Description: (§1) HEK293T cells were seeded onto 6-well plates at a density of 750,000 cells/well. […] 16 to 24 hours post-transfection, HEK293T cells were seeded onto white 96 well plate (PerkinElmer) coated with poly-L-lysine (PLL) at a density of 40,000 cells/well and were allowed to grow overnight. On the day of assay, cells were washed once with phosphate-based saline (PBS) and 80 µL of assay buffer which composed of PBS with 0.5 mM MgCl2 and 0.1% glucose, pH 7.4, were added onto each well. 10 µL of Nluc luciferase substrate furimazine (Promega) were added onto each well and incubated for 3 minutes.
(§2) The net BRET ratio was determined by subtracting the BRET ratio of drugs with the BRET ratio of vehicle control. Net BRET ratio over time was then plotted using GraphPad Prism (v.9.4.1), and the area-under-curve of net BRET ratio over time course for each ligand concentration tested were then determined and plotted against log(concentration) of drugs tested. […] Concentration response curves were fitted with a 4-parameter logistic Eq. (1) using GraphPad Prism (v.9.4.1):1 Y=Emin+(Emax−Emin)/1+10^logEC50−X×Hillslope

The target of data set [4] is T3, human SSTR2 (Gi3) (Homo sapiens, UniProt P30874).
T3 construct: host or cells: HEK293T cells
T3 sequence (P30874 whole entry): as above
As to the kind of experiment: G protein activation (BRET dissociation) assay, Gi3 at hSSTR2.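 Note: percent of the maximal response to the reference somatostatin agonist.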 It is filed as cell-based.
Description: as §1, §2

Data set [5] has as its target human SSTR2 (Homo sapiens, UniProt P30874). Briefly: PRESTO-Tango β-arrestin recruitment assay, hSSTR2. The settings on record: read-out: Emax ± S.E.M., Table S1; % of maximal response relative to SS-14.
Description: HTLA cells were given by Prof. Bryan Roth (University of North Carolina, Chapel Hill, US) and were maintained in Dulbecco’s modified Eagle’s medium (DMEM) supplemented with 10% Fetal Bovine Serum (FBS) (Biowest) and 100 U/mL penicillin and 100 µg/mL streptomycin at 37 °C in a humidified incubator supplemented with 5% CO2. Constant selective pressure for tTA-dependent luciferase reporter and a β-arrestin 2 tobacco etch virus protease fusion gene were maintained with the addition of 100 µg/mL hygromycin B and 2 µg/ml puromycin (Tango growth medium).
Briefly, HTLA cells (1 million cells/well) were seeded in 6-well plates in Tango growth medium, and incubated overnight. On day 2, medium was changed to Tango growth medium without hygromycin B and puromycin. Cells were then transfected using Polyfect (Qiagen) according to manufacturer’s protocol. On day 3, 15,000 cells in 40 µL DMEM supplemented with 1% dialyzed FBS (Tango assay medium) per well were seeded in poly-D-lysine-coated white clear-bottom 384 well plates (Corning) and incubated overnight. On day 4, the Tango assay medium was changed and 10 µL of each of the peptide was added at 5x final concentration. The peptides were resuspended in HBSS with 20 mM HEPES, 1 mM of CaCl2, 1 mM of MgCl2, pH adjusted to 7.4 with 1 M NaOH (Tango assay buffer), which was supplemented with 0.1% BSA (Tango ligand buffer). After overnight incubation, on day 5, the medium and the compounds were removed from the cells and 20 µL of 1:20 dilution of BrightGlo (Promega) in Tango assay buffer supplemented with 0.01% pluronic F68 was added to the cells. Plates were incubated for 20 minutes in the dark at room temperature. Luminescence was measured on a Molecular Devices SpectraMax iD5 (Molecular Devices) with each well integrated for 1 second.
Data set [6] deals with human SSTR2 (GoA) (Homo sapiens, UniProt P30874). As to the kind of experiment: G protein activation (BRET dissociation) assay, GoA at hSSTR2.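 Note: percent of the maximal response to the reference somatostatin agonist.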 The settings on record: read-out: Emax ± S.E.M.
Chain of human SSTR2 (GoA) (P30874 whole entry): as above
Description: as §1, §2
Data set [7] has as its target T4, human SSTR2 (GoB) (Homo sapiens, UniProt P30874).
T4 construct: host or cells: HEK293T cells
As to the kind of experiment: G protein activation (BRET dissociation) assay, GoB at hSSTR2.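 Note: percent of the maximal response to the reference somatostatin agonist.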 It is filed as cell-based.
Description: as §1, §2

In data set [8] the target is T5, human SSTR2 (Gi2) (Homo sapiens, UniProt P30874).
T5 construct: host or cells: HEK293T cells
T5 sequence (P30874 whole entry): as above
Briefly: G protein activation (BRET dissociation) assay, Gi2 at hSSTR2.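 Note: percent of the maximal response to the reference somatostatin agonist.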 It is filed as cell-based.
Description: as §1, §2

Data set [9] deals with mock (pcDNA) transfected HEK293T cells. As to the kind of experiment: GoA dissociation in mock (pcDNA) transfected HEK293T cells. Type of data set: cell-based. The settings on record: Fig. S6B.
Description: The following protocol was adopted from Masuho et al., 2015[33]. HEK293T cells were seeded onto 6-well plates at a density of 750,000 cells/well. […] 16 to 24 hours post-transfection, HEK293T cells were seeded onto white 96 well plate (PerkinElmer) coated with poly-L-lysine (PLL) at a density of 40,000 cells/well and were allowed to grow overnight. On the day of assay, cells were washed once with phosphate-based saline (PBS) and 80 µL of assay buffer which composed of PBS with 0.5 mM MgCl2 and 0.1% glucose, pH 7.4, were added onto each well. 10 µL of Nluc luciferase substrate furimazine (Promega) were added onto each well and incubated for 3 minutes.
Crude C. geographus venom was subjected to reversed-phase high performance liquid chromatography (RP-HPLC). Pools consisting of 5 adjacent fractions were then tested for their ability to induce GoA dissociation at the hSSTR2. […] Error bars represent means ± S.E.M. of only one technical experiment in duplicate.
Error bars represent means ± S.E.M. of only one technical experiment in duplicate.
Data set [10] addresses zebrafish sstr2a, Tango construct (zebrafish (Danio rerio)) (UniProt E7FDL0).
In data set [11] the target is zebrafish sstr2b, Tango construct (zebrafish (Danio rerio)).
Data set [12] relates to plasma glucose. The settings on record: compared with GLP-1; cited from earlier work. The source says: Another example of a doppelganger peptide with drug-like properties that targets glucose homeostasis is exendin-4, a glucagon-like peptide-1 (GLP-1) peptide derived from the salivary gland of the Gila monster, Heloderma suspectum. […] Following successful clinical trials, exendin-4 (exenatide) entered the market in 2005 as a first-in-class incretin-mimetic for the treatment of type 2 diabetes (T2D). Since then, several other GLP-1 analogs have been devel ...

Ends that are not written are not given here.

T4 sequence (P30874 whole entry): as above
Chain of human SSTR2 (P30874 whole entry): as above

Regarding `N=C(N)NCCC[C@H](N)C(=O)O` [L-arginine, reference compound], the “effect on glucagon levels (positive control)” value in data set [1] is “revert glucagon levels”.
`C[C@@H](O)[C@@H]1NC(=O)[C@H](CCCCN)NC(=O)[C@@H](Cc2c[nH]c3ccccc23)NC(=O)[C@H](Cc2ccccc2)NC(=O)[C@@H](NC(=O)[C@H](N)Cc2ccccc2)CSSC[C@@H](C(=O)N[C@H](CO)[C@@H](C)O)NC1=O` [Octreotide, octreotide, reference compound]: the Emax (as a rule, the greatest response seen or fitted, relative to the assay's reference) in [2] amounted to 108 ± 13.4%; in [3] it was 84.2 ± 4.44%; in data set [4], 77.5 ± 3.67%; in [5] it was 94 ± 1.4%; in [6], 96.2 ± 4.77%; in data set [7] it was 101 ± 2.64%. In addition, the Emax in [8] turned out to be 64 ± 2.97%.
On to “SST-14 (AGCKNFFWKTFTSC; not fully specified (bridges); ends and bridges not checked; UniProt P61278 103-116, looked up)”, for which the “pcDNA/GoA response, Mean” value in data set [9] (at pEC20, data row 1) stood at 0.005611; in data set [9] (at pEC20, data row 2), 0.02323; in data set [9] (at pEC20, data row 3), 0.002971; in [9] (at pEC50, data row 1), 0; in data set [9] (at pEC50, data row 2) it was 0.0008161; in [9] (at pEC50, data row 3), 0.
For the compound “Somatostatin-14 (from UniProt P61278 103-116) (peptide)”, the results for the EC50, PRESTO-Tango β-arrestin recruitment assay in data set [10] and in data set [11] were 28.6 nM and 132 nM, respectively.
For the compound exendin-4, in [12], the “in vivo half-life in words” value was “significantly longer in vivo half-life than GLP-1” and the “potency in lowering plasma glucose in words” value is reported as “much greater potency in lowering plasma glucose”.

(Values after PMC11336141.)
